Measurements from article PMC7949139, “The molecular basis of OH-PCB estrogen receptor activation” (The Journal of Biological Chemistry, 2021).
Numbering of substitutions follows the chain as printed.

Experiments:
Assay type in all cases: biochemical
[1] = target: T1, spin-labeled SULT1E1, spin label attached at Cys residue 233 (C69S/N233C) (Homo sapiens, UniProt P49888, C69S/N233C); assay: Initial-rate studies, spin-labeled construct (label at Cys 233); details: spin label at Cys 233; parentheses = one SD; read-out: Ki OH-PCB1
T1 construct: E. coli codon-optimized SULT1E1 coding region inserted into the PreScission Protease cleavage site; His/GST/MBP triple tag (N, cleaved yes); made in house; host or cells: E. coli BL21(DE3)
T1 sequence (P49888 1-294 C69S/N233C): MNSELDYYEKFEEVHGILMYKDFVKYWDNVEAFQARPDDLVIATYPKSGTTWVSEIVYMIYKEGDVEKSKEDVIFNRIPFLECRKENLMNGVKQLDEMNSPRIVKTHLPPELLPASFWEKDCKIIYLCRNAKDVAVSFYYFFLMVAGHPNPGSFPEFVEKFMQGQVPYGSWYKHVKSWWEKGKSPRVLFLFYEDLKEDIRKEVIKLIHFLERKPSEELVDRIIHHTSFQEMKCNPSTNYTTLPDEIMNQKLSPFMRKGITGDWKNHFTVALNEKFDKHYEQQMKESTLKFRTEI
Procedure: (§1) Spin labels were attached to the SULT1E1 scaffold at Cys residues that were site-specifically incorporated via PCR-based mutagenesis. Prior to creating spin-label attachment constructs, reactive Cys was removed from the native scaffold. Only one of the four native SULT1E1 Cys (i.e., C69) reacts with DTNB ([39]), and mutagenic conversion of C69 to ser produced a stable, fully active non-DTNB-reactive scaffold. Five individual cys-attachment constructs were prepared from the C69S mutant (G16C, K25C, N150C, Q163C, and N233C). Mutants were labeled (see, Experimental procedures) and the initial rate parameters (kcat, Km and Ki) of each spin-labeled mutant were determined (see, Experimental procedures, Initial-Rate studies) to evaluate whether the catalytic integrity of the constructs had been compromised by the insertions and/or spin label attachments. […]
(§2) Labels (N-cyclohexylmale-imide or 3-maleimido-PROXYL) were added in 20-fold excess over reactive cysteine to a solution containing SULT1E1 construct (50 μM active sites), 0.50 mM PAP, and 50 mM KPO4 (pH 7.4), 25 °C ± 2 deg. […] The reactions were monitored by using DTNB to measure unreacted cysteine and were considered complete when >98% of the cysteine had reacted (∼3 h).
(§3) C. Reaction progress was monitored via the fluorescence change associated with 1-HP sulfonation (λex = 325 nm, λem = 370 nm ([51], [52])). […]

SULT1E1 F80A = target: T2, SULT1E1 F80A (Homo sapiens, UniProt P49888, F80A); assay: Initial-rate studies (1-HP sulfonation; OH-PCB1 inhibition), F80A mutant
T2 construct: E. coli codon-optimized SULT1E1 coding region inserted into the PreScission Protease cleavage site; His/GST/MBP triple tag (N, cleaved yes); made in house; host or cells: E. coli BL21(DE3)
T2 sequence (P49888 1-294 F80A): T1 sequence (P49888 1-294 C69S/N233C) with S69C, F80A, C233N
Procedure: (§4) C. Reaction progress was monitored via the fluorescence change associated with 1-HP sulfonation (λex = 325 nm, λem = 370 nm ([51], [52])). Initial rates were measured during conversion to product of ≤5% of the concentration-limiting substrate consumed at the reaction endpoint. Velocities were determined in triplicate. Km and kcat were obtained by (1/v^4)-weighted least-squares fitting of the averaged data in double-reciprocal space (i.e., 1/v versus 1/[S]) ([66], [67]).
(§5) Inhibition studies were performed as described above except: 1-HP was fixed (2.0 μM, 100 × Km), OH-PCBs were added (0.20–20 × Ki), and SULT1E1 was 0.20 nM (active sites). Ki was determined by least-squares fitting to a noncompetitive inhibition model ([66], [67]).

WT SULT1E1 = target: T3, WT SULT1E1 (Homo sapiens, UniProt P49888); assay: Initial-rate studies (1-HP sulfonation; OH-PCB inhibition), WT enzyme
T3 construct: E. coli codon-optimized SULT1E1 coding region inserted into the PreScission Protease cleavage site; His/GST/MBP triple tag (N, cleaved yes); made in house; host or cells: E. coli BL21(DE3)
T3 sequence (P49888 1-294): T1 sequence (P49888 1-294 C69S/N233C) with S69C, C233N
Procedure: as §4, §5

SULT1E1 F75A = target: T4, SULT1E1 F75A (Homo sapiens, UniProt P49888, F75A); assay: Initial-rate studies (1-HP sulfonation; OH-PCB1 inhibition), F75A mutant
T4 construct: E. coli codon-optimized SULT1E1 coding region inserted into the PreScission Protease cleavage site; His/GST/MBP triple tag (N, cleaved yes); made in house; host or cells: E. coli BL21(DE3)
T4 sequence (P49888 1-294 F75A): T1 sequence (P49888 1-294 C69S/N233C) with S69C, F75A, C233N
Procedure: as §4, §5

[2] = target: T5, spin-labeled SULT1E1, spin label attached at Cys residue 150 (C69S/N150C) (Homo sapiens, UniProt P49888, C69S/N150C); assay: Initial-rate studies, spin-labeled construct (label at Cys 150); details: spin label at Cys 150; parentheses = one SD; read-out: Ki OH-PCB1
T5 construct: E. coli codon-optimized SULT1E1 coding region inserted into the PreScission Protease cleavage site; His/GST/MBP triple tag (N, cleaved yes); made in house; host or cells: E. coli BL21(DE3)
T5 sequence (P49888 1-294 C69S/N150C): T1 sequence (P49888 1-294 C69S/N233C) with N150C, C233N
Procedure: as §1, §2, §3

[3] = noncompetitive inhibition model, parentheses = one SD

## Oc1ccc(-c2c(Cl)cccc2Cl)cc1 [OH-PCB1, 4ʹ-OH-2,6-dichlorobiphenol]
[1]
  Ki: 58 nM
SULT1E1 F80A
  Fold Effect = Ki OH-PCB1/Ki OH-PCB1 WT: 12
SULT1E1 F80A; [3]
  Ki: 730 nM
WT SULT1E1; WT
  Fold Effect = Ki OH-PCB1/Ki OH-PCB1 WT: 1.0
WT SULT1E1; WT SULT1E1, Table 1, parentheses = one SD, read-out: Ki OH-PCB1
  Ki: 60 nM
SULT1E1 F75A
  Fold Effect = Ki OH-PCB1/Ki OH-PCB1 WT: 11
SULT1E1 F75A; [3]
  Ki: 630 nM
[2]
  Ki: 65 nM
